Results from PubChem BioAssay (NCI).
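Briefly, cells in 96-well plates were exposed to five compound concentrations for 48 h, and endpoints were estimated by linear interpolation. At the TGI there is no net growth.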

Columns and labels:
Test in all cases: NCI anticancer screen, dose series, 48 h
NCI-H23 lung = tested on: NCI-H23 lung
NCI-H522 lung = tested on: NCI-H522 lung
EKVX NSCLC = tested on: EKVX NSCLC
UO-31 renal = tested on: UO-31 renal
M19-MEL melanoma = tested on: M19-MEL melanoma
HOP-62 NSCLC = tested on: HOP-62 NSCLC
ACHN renal = tested on: ACHN renal
SW-620 colon = tested on: SW-620 colon
KM12 colon = tested on: KM12 colon
UACC-257 melanoma = tested on: UACC-257 melanoma
RXF 393 renal = tested on: RXF 393 renal
CCRF-CEM leukemia = tested on: CCRF-CEM leukemia
DMS 273 small cell lung = tested on: DMS 273 small cell lung
LXFL 529 NSCLC = tested on: LXFL 529 NSCLC
HCC-2998 colon = tested on: HCC-2998 colon
OVCAR-4 ovarian = tested on: OVCAR-4 ovarian
SR leukemia = tested on: SR leukemia
NCI-H460 lung = tested on: NCI-H460 lung
OVCAR-3 ovarian = tested on: OVCAR-3 ovarian
SK-MEL-28 melanoma = tested on: SK-MEL-28 melanoma
786-0 renal = tested on: 786-0 renal
MALME-3M melanoma = tested on: MALME-3M melanoma
DMS 114 small cell lung = tested on: DMS 114 small cell lung
CAKI-1 renal = tested on: CAKI-1 renal
MOLT-4 leukemia = tested on: MOLT-4 leukemia
LOX IMVI melanoma = tested on: LOX IMVI melanoma
HCT-15 colon = tested on: HCT-15 colon
SNB-75 CNS = tested on: SNB-75 CNS
OVCAR-8 ovarian = tested on: OVCAR-8 ovarian
HOP-92 NSCLC = tested on: HOP-92 NSCLC
SN12C renal = tested on: SN12C renal
A498 renal = tested on: A498 renal
IGROV1 ovarian = tested on: IGROV1 ovarian
K-562 leukemia = tested on: K-562 leukemia
KM20L2 colon = tested on: KM20L2 colon
SNB-19 CNS = tested on: SNB-19 CNS
COLO 205 colon = tested on: COLO 205 colon
HCT-116 colon = tested on: HCT-116 colon
M14 melanoma = tested on: M14 melanoma
SF-268 CNS = tested on: SF-268 CNS
U251 CNS = tested on: U251 CNS
A549 NSCLC = tested on: A549 NSCLC
HL-60(TB) leukemia = tested on: HL-60(TB) leukemia
RPMI-8226 leukemia = tested on: RPMI-8226 leukemia
HT29 colon = tested on: HT29 colon
UACC-62 melanoma = tested on: UACC-62 melanoma
SK-OV-3 ovarian = tested on: SK-OV-3 ovarian
SK-MEL-2 melanoma = tested on: SK-MEL-2 melanoma
SNB-78 CNS = tested on: SNB-78 CNS
SF-295 CNS = tested on: SF-295 CNS
SF-539 CNS = tested on: SF-539 CNS
TK-10 renal = tested on: TK-10 renal

Structure (SMILES): CS/C(=N\C(=S)N(C)C)N(c1ccccc1)c1nc(=[N+](C)C)ss1
- TGI (NCI-H23 lung): 51.7 µM
- TGI (NCI-H522 lung): 5.36 µM
- TGI (EKVX NSCLC): 49.3 µM
- TGI (UO-31 renal): > 100 µM
- TGI (M19-MEL melanoma): 14.8 µM
- TGI (HOP-62 NSCLC): 52.9 µM
- TGI (ACHN renal): > 100 µM
- TGI (SW-620 colon): 16.3 µM
- TGI (KM12 colon): 15.8 µM
- TGI (UACC-257 melanoma): 17.3 µM
- TGI (RXF 393 renal): 37.4 µM
- TGI (CCRF-CEM leukemia): 8.45 µM
- TGI (DMS 273 small cell lung): 15.4 µM
- TGI (LXFL 529 NSCLC): 15.9 µM
- TGI (HCC-2998 colon): 28.9 µM
- TGI (OVCAR-4 ovarian): 24.7 µM
- TGI (SR leukemia): 24.6 µM
- TGI (NCI-H460 lung): 25.7 µM
- TGI (OVCAR-3 ovarian): 22.7 µM
- TGI (SK-MEL-28 melanoma): 9.22 µM
- TGI (786-0 renal): 39.3 µM
- TGI (MALME-3M melanoma): 7.44 µM
- TGI (DMS 114 small cell lung): 2.28 µM
- TGI (CAKI-1 renal): 80.2 µM
- TGI (MOLT-4 leukemia): 18.3 µM
- TGI (LOX IMVI melanoma): 18.1 µM
- TGI (HCT-15 colon): > 100 µM
- TGI (SNB-75 CNS): 19.1 µM
- TGI (OVCAR-8 ovarian): 28.1 µM
- TGI (HOP-92 NSCLC): 51.2 µM
- TGI (SN12C renal): 37.9 µM
- TGI (A498 renal): 7.04 µM
- TGI (IGROV1 ovarian): > 100 µM
- TGI (K-562 leukemia): 12.5 µM
- TGI (KM20L2 colon): 50.3 µM
- TGI (SNB-19 CNS): > 100 µM
- TGI (COLO 205 colon): 7.04 µM
- TGI (HCT-116 colon): 21.7 µM
- TGI (M14 melanoma): 16.7 µM
- TGI (SF-268 CNS): 26.4 µM
- TGI (U251 CNS): 20 µM
- TGI (A549 NSCLC): 22.3 µM
- TGI (HL-60(TB) leukemia): 5.98 µM
- TGI (RPMI-8226 leukemia): 6.24 µM
- TGI (HT29 colon): 11.6 µM
- TGI (UACC-62 melanoma): 19.2 µM
- TGI (SK-OV-3 ovarian): > 100 µM
- TGI (SK-MEL-2 melanoma): 36.6 µM
- TGI (SNB-78 CNS): 92.8 µM
- TGI (SF-295 CNS): 57.4 µM
- TGI (SF-539 CNS): 25.5 µM
- TGI (TK-10 renal): > 100 µM
